Assays:
MRSA = test: LGX staphylocoagulase fluorescence assay, MRSA isolates; type: cell-based, Staphylococcus aureus
Protocol: (§1) Each sample was rinsed liberally in sterile 1×PBS and varying concentrations of bacterial suspension from 10^0-10^6 were generated by serial dilution in 1×PBS. Additionally, bacterial cultures were furthermore maintained on nutrient agar to assess the coagulase status of the isolate.
(§2) To determine the effects of varying bacterial concentrations with respect to bacterial strains and concentrations of the compounds according to the present invention on staphylocoagulase activity, 100 and 50 μM solutions containing LGX were prepared in 1×PBS with the addition of 0.05 M Tris Buffer and 0.1 M NaCl to maintain a pH of 8.5 using LGX dissolved in MeOH so that final concentration of methanol was no more than 2.5%. Furthermore, an appropriate concentration (100 μM and 50 μM, respectively) of human prothrombin was added to the solution.
(§3) The plate reader used was a Fluostar Optima, and the plates used were Nunclon Surface 96 well plates. Positive controls for each experiment was a strain of MRSA, and the negative control for each experiment was a strain of E. coli, both of which were picked at random to ensure there was no bias within the data. A 1:1 ratio of the LGX solution with PBS was also assayed as “LGX alone” sample, which has been designated as a black line on the graphs below. n=3 cultures were assayed in each case.
(§4) Clinical isolates of Methicillin Resistant Staphylococcus Aureus (MRSA), Methicillin Sensitive Staphylococcus Aureus (MSSA), Staphylococcus Epidermidis, Eschericia coli and other staphyloccal species were cultured on nutrient agar prior to being grown overnight in nutrient broth under shaking conditions at 37° C. Each sample was rinsed liberally in sterile 1×PBS and varying concentrations of bacterial suspension from […] were generated by serial dilution in 1×PBS. Additionally, bacterial cultures were furthermore maintained on nutrient agar to assess the coagulase status of the isolate.
(§5) To determine the effects of varying bacterial concentrations with respect to bacterial strains and LGX concentrations on staphylocoagulase activity, 100 and 50 μM solutions of LGX were prepared in 1×PBS with the addition of 0.05 M Tris Buffer and 0.1 M NaCl to maintain a pH of 8.5 using LGX dissolved in MeOH so that final concentration of methanol was no more than 2.5%. Furthermore, an appropriate concentration (100 μM and 50 μM, respectively) of human prothrombin was added to the solution. 90 μl of LGX solution in addition to each respective bacterial isolate at varying concentrations was added to a microtitre plate. […] The plate reader used was a Fluostar Optima, and the plates used were Nunclon Surface 96 well plates.

MSSA = test: LGX staphylocoagulase fluorescence assay, MSSA isolates; type: cell-based, Staphylococcus aureus
Protocol: as §1, §2, §3, §4, §5

SMILES: CC(C)[C@H](NC(=O)OC(C)(C)C)C(=O)N1CCC[C@H]1C(=O)N[C@@H](CCCNC(=N)N)C(=O)Nc1ccc2c(c1)Oc1cc(NC(=O)[C@H](CCCNC(=N)N)NC(=O)[C@@H]3CCCN3C(=O)[C@@H](NC(=O)OC(C)(C)C)C(C)C)ccc1C21OC(=O)c2ccccc21 (stereo partly drawn) [LGX, Rho-(Arg-Pro-Val-NHBoc)2]
- samples failed to reach maximum fluorescence within the 6 hour time frame (MRSA; 50 μM LGX, MRSA 10^2): 60%
- samples reaching the maximum reading of 65,000 RFU within 4 hours (MRSA; 50 μM LGX, MRSA 10^2): 40%
- samples failed to reach maximum fluorescence within the 6 hour time frame (MRSA; 50 μM LGX, MRSA 10^3): 40%
- samples reaching the maximum reading of 65,000 RFU within 4 hours (MRSA; 50 μM LGX, MRSA 10^3): 60%
- samples failed to reach maximum fluorescence within 5 hours (MRSA; 50 μM LGX, MRSA 10^5): 20%
- samples reaching the maximum reading of 65,000 RFU within 2 hours (MRSA; 50 μM LGX, MRSA 10^5): 60%
- samples failed to reach maximum (MRSA; 50 μM LGX, MRSA 10^6): 10%
- samples reaching the maximum reading of 65,000 RFU within 2 hours (MRSA; 50 μM LGX, MRSA 10^6): 90%
- time by which maximum fluorescence level was reached, all samples (MRSA; 50 μM LGX, MRSA 10^6): ≤ 2 h
- time for fluorescence readings to reach a maximum (MRSA; 50 μM LGX, MRSA positive control at 10^6, 10^5 and 10^3): almost immediately or within an hour
- time for fluorescence readings to reach a maximum (MRSA; 50 μM LGX, MRSA positive control, lower concentrations): 6 h
- samples achieving a fluorescence reading of 20,000 within 1 hour (MRSA; 100 μM LGX, MRSA 10^2): 95%
- samples in which fluorescence reached its upper limits within 4 hours (MRSA; 100 μM LGX, MRSA 10^2): 40%
- time for fluorescence to reach a maximum (MRSA; 100 μM LGX, MRSA 10^2, FIG. 14): approximately 3 hours
- samples in which fluorescence reached its upper limits within 3 hours (MRSA; 100 μM LGX, MRSA 10^3): 40%
- MRSA reaching maximum fluorescence over the 6 hours time period (MRSA; 100 μM LGX, MRSA 10^4): 90%
- samples in which fluorescence reached its upper limits within 2 hours (MRSA; 100 μM LGX, MRSA 10^4): 50%
- isolates failed to reach maximum fluorescence over 6 hours (MRSA; 100 μM LGX, MRSA lower concentrations of 10^3 and 10^4 (so in the source)): 40%
- time for fluorescence to reach a maximum (MRSA; 100 μM LGX, MRSA positive control, all concentrations (10^4, 10^3 and 10^3 as printed)): ≤ 3 h
- LGX SYSTEM (MRSA; MRSA, detection of coagulase positive samples): +
- samples reaching maximum fluorescence (MSSA; 50 μM LGX, MSSA 10^2, 6 hours): no samples reached maximum fluorescence
- samples reaching the maximum reading of 65,000 RFU within 2.5 hours (MSSA; 50 μM LGX, MSSA 10^3): 25%
- samples that had reached maximum fluorescence within 6 hours (MSSA; 50 μM LGX, MSSA 10^3): 60%
- samples failed to reach maximum fluorescence within 6 hours (MSSA; 50 μM LGX, MSSA 10^5): 5%
- samples reaching the maximum reading of 65,000 RFU within 2 hours (MSSA; 50 μM LGX, MSSA 10^5): 75%
- time by which maximum fluorescence level was reached (MSSA; 50 μM LGX, MSSA 10^6): ≤ 2 h
- samples achieving a fluorescence reading of 20,000 within 1 hour (MSSA; 100 μM LGX, MSSA 10^2): 90%
- samples reached maximum fluorescence over a 6 hour time period (MSSA; 100 μM LGX, MSSA 10^2): 25%
- samples reached maximum fluorescence within 2 hours (MSSA; 100 μM LGX, MSSA 10^2): 5%
- samples reached maximum fluorescence within 4 hours (MSSA; 100 μM LGX, MSSA 10^3): 45%
- samples in which fluorescence reached its upper limits within 1 hours (MSSA; 100 μM LGX, MSSA 10^4): 70%
- samples remained below maximum fluorescence (MSSA; 100 μM LGX, MSSA 10^4): 20%
- LGX SYSTEM (MSSA; MSSA): +
